Tests used:
[1] = tested on: radiation-induced, chemical-induced and metastatic malignant and benign tumors; assay: Antitumor effects against induced and metastatic tumors; type: in vivo
[2] = tested on: monocytes, macrophages and lymphocytes; assay: In vitro experiments in monocytes, macrophages and lymphocytes; type: cell-based
SARS-CoV-2 [3] = type: cell-based; details: commercially available nasal spray tested at 5-fold dilution
[4] = Human wound healing model (skin blister); type: in vivo
[5] = Humoral and cellular immunity (Jerne plaque and footpad swelling tests); type: in vivo
[6] = tested on: PBMCs isolated from normal donors; assay: Gene expression in PBMCs by quantitative RT-PCR (Light Cycler System); type: cell-based, human
SARS-CoV-2 [7] = type: cell-based
HIV = type: cell-based; details: in vitro
[8] = Blood cell effects in rats, including total body X-irradiation; type: in vivo

tetrachlorodecaoxide [TCDO]
direct antitumor effects [1]: displayed direct antitumor effects | antigen presentation [2]: decrease antigen presentation | macrophage tumor necrosis factor (TNF) expression [2]: decrease macrophage tumor necrosis factor (TNF) expression | macrophage-fibroblast cooperation [2]: enhance macrophage-fibroblast cooperation | oxidative burst in monocytes [2]: stimulate an oxidative burst in monocytes | phagocytosis [2]: increase phagocytosis | inhibition of viral propagation (SARS-CoV-2 [3]): highly potent | number of macrophages infiltrating the skin blister [4]: increased the number of macrophages infiltrating the skin blister | humoral and cellular immune responses ([5]; Jerne plaque and footpad swelling tests): increased both the humoral and cellular immune responses | proportions of T-helper and T-suppressor/cytotoxic cells ([5]; spleen and thymus): altered proportions of T-helper and T-suppressor/cytotoxic cells | CD14 cell (macrophage) inflammatory gene expression [6]: short-term upregulation | inducible gene expression related to macrophage dependent T-cell activation (IL-2, IL-4, IL-17) [6]: notable inhibition | cytopathic effect and SARS-CoV-2 infection of Vero E6 cells (SARS-CoV-2 [7]): significantly reduced | anti-HIV properties (HIV): displayed anti-HIV properties | proportion of granulocytes, PBMCs and LGLs [8]: increased the proportion of granulocytes, peripheral blood monocytes (PBMCs) and large granular lymphocytes (LGLs) | erythropoiesis ([8]; after total body X-irradiation): stimulated erythropoiesis
